Read-outs that look alike come from different tables or passages of the source. Where no end group is shown, it is not given here.
Columns and labels:
[1] = tested on: eosinophils in bronchoalveolar lavage fluid; assay: Eosinophil increase in bronchoalveolar lavage fluid, ovalbumin-induced bronchial asthma and rhinitis mouse model; format: in vivo; conditions: 1 mg/kg IP, 8 times daily for 8 days, FIG. 9
Protocol: (§1) A bronchial asthma and rhinitis animal model was prepared by the following method. An ovalbumin solution was prepared by dissolving ovalbumin in an aluminum hydroxide solution (1 mg/ml) 28 and 14 days before the start of inducing bronchial asthma and rhinitis, and 200 μl of the solution was intraperitoneally injected into each mouse for sensitization. After 14 days of final sensitization, 20 μl of saline/PBS (normal control; NC) or 20 μl of 10 mg/mL ovalbumin solution (positive control; PC) was instilled into the nasal cavity of each lightly anesthetized mouse 4 times every other day for 8 days to induce bronchial asthma and rhinitis.
After anesthetizing the mouse by injecting a mixture of zoletil (250 mg/kg) and rompun (50 mg/kg) intraperitoneally, a 20-gauge catheter was inserted into the trachea by puncturing the trachea with a knife, and 0.6 mL of PBS at a time was injected-collected three times, and the collection rate was adjusted to 80%. The collected bronchoalveolar lavage fluid was centrifuged at 4° C., 3000 rpm for 10 minutes, and the cell precipitate was resuspended in 0.1 mL of PBS. 20 μL of the suspension was analyzed for the composition of blood cells using a fully automatic hematology analyzer (HEMAVET 950 FS, Drew Scientific, Inc.).

IL-5 = IL-5 secretion in bronchoalveolar lavage fluid, ovalbumin-induced bronchial asthma and rhinitis mouse model; format: in vivo; conditions: 1 mg/kg IP
Protocol: as §1
After the end of the experiment, the amount of IL-5 in the supernatant obtained by centrifuging bronchoalveolar lavage fluid was measured and quantified by enzyme immunosorbent detection using mouse IL-5 ELISA kit (Biolegend, USA).
(§2) Next, in order to confirm whether there is an effect of inhibiting IL-5 secretion even when administered in a small number of times, the dTBP2 of Preparative Example 4 and Example 3 was administered to the mouse model of Example 4-1 through intraperitoneal injection once in 4 days for a total of 2 times for 8 days inducing bronchial asthma and rhinitis. The amount of IL-5 was measured and quantified by the enzyme immunosorbent detection method in the same manner.
(§3) In addition, the dTBP2 of Preparative Example 4 and Example 3 was administered to the mouse model of Example 4-1 through intraperitoneal injection once on the 1st day of 8 days inducing bronchial asthma and rhinitis. The amount of IL-5 was measured and quantified by the enzyme immunosorbent detection method in the same manner.
The amount of IL-5 was measured and quantified by the enzyme immunosorbent detection method in the same manner.

IL-4 = IL-4 secretion in bronchoalveolar lavage fluid, ovalbumin-induced bronchial asthma and rhinitis mouse model; format: in vivo; conditions: 1 mg/kg IP
Protocol: as §1
After the end of the experiment, the amount of IL-4 in the supernatant obtained by centrifuging bronchoalveolar lavage fluid was measured and quantified by enzyme immunosorbent detection using mouse IL-4 ELISA kit (Biolegend, USA).
as §2, with “IL-4” for “IL-5”
as §3, with “IL-4” for “IL-5”
The amount of IL-4 was measured and quantified by the enzyme immunosorbent detection method in the same manner.

IL-13 = IL-13 secretion in bronchoalveolar lavage fluid, ovalbumin-induced bronchial asthma and rhinitis mouse model; format: in vivo; conditions: 1 mg/kg IP
Protocol: as §1
After the end of the experiment, the amount of IL-13 in the supernatant obtained by centrifuging bronchoalveolar lavage fluid was measured and quantified by enzyme immunosorbent detection using mouse IL-13 ELISA kit (R&D system, USA).
as §2, with “IL-13” for “IL-5”
as §3, with “IL-13” for “IL-5”
The amount of IL-13 was measured and quantified by the enzyme immunosorbent detection method in the same manner.

ovalbumin-specific IgE = assay: Ovalbumin-specific IgE secretion in mouse plasma, ovalbumin-induced bronchial asthma and rhinitis mouse model; format: in vivo; conditions: 1 mg/kg IP
Protocol: as §1
Ovalbumin is an allergy-causing substance mainly contained in egg whites. […] After completion of the experiment, the mouse was anesthetized by injecting a mixture of zoletil (250 mg/kg) and rompun (50 mg/kg) intraperitoneally, and the chest was opened. 0.8 mL blood was collected by puncture of the heart with a 26 gauge 1 mL syringe coated with heparin. The collected blood was centrifuged at 4° C., 3000 rpm for 10 minutes to obtain plasma components. The amount of ovalbumin-specific IgE in the blood serum obtained through the above process was measured and quantified by enzyme immunosorbent detection method using mouse OVA specific IgE kit (Biolegend, USA).
as §2, with “inhibiting ovalbumin-specific IgE” for “inhibiting IL-5”, “secretion in plasma” for “secretion”, “of ovalbumin-specific IgE secretion” for “of IL-5”
as §3, with “ovalbumin-specific IgE secretion” for “IL-5”
The amount of ovalbumin-specific IgE secretion was measured and quantified by the enzyme immunosorbent detection method in the same manner.

[2] = microsomes; for Mouse (%) remaining after reaction: 0.5 h
Protocol: (§4) Upon completion of the reaction, cold acetonitrile containing internal standard was added, and then deproteinization was carried out. The reactant was centrifuged at 4° C., 4000 rpm for 15 minutes, and the supernatant was analyzed by LC-MS/MS. The system was verified with buspirone, a reference material.

[3] = microsomes; for Human (%) remaining after reaction: 0.5 h
Protocol: as §4

Example 3: dTBP2 (WYVYPSM) conjugated at the N-terminal with methoxy polyethylene glycol propionaldehyde (10 kDa) ({mPEG propionaldehyde 10 kDa}-WYVYPSM)
reduction of increased eosinophils vs positive control [1]: about 55%
reduction of IL-5 secretion (IL-5; 8 times daily for 8 days, FIG. 10): about 50%
inhibiting IL-5 secretion (IL-5; once in 4 days for a total of 2 times (FIG. 11) and once on the 1st day (FIG. 12)): effective
IL-5 secretion inhibitory effect (IL-5; once on the 5th day of 8 days, FIG. 13): effectively inhibited
reduction of IL-4 secretion (IL-4; 8 times daily for 8 days, FIG. 14): about 60%
inhibiting IL-4 secretion (IL-4; once in 4 days for a total of 2 times (FIG. 15) and once on the 1st day (FIG. 16)): effective
IL-4 secretion inhibitory effect (IL-4; once on the 5th day of 8 days, FIG. 17): effectively inhibited
reduction of IL-13 secretion (IL-13; 8 times daily for 8 days, FIG. 18): about 20%
inhibiting IL-13 secretion (IL-13; once in 4 days for a total of 2 times (FIG. 19) and once on the 1st day (FIG. 20)): effective
IL-13 secretion inhibitory effect (IL-13; once on the 5th day of 8 days, FIG. 21): inhibitory effect
inhibitory ability on ovalbumin-specific IgE secretion compared with dTBP2 of Preparative Example 4 (ovalbumin-specific IgE; FIGS. 23 and 24): better
inhibiting ovalbumin-specific IgE secretion (ovalbumin-specific IgE; once in 4 days for a total of 2 times (FIG. 23) and once on the 1st day (FIG. 24)): effective
ovalbumin-specific IgE secretion inhibitory effect (ovalbumin-specific IgE; once on the 5th day of 8 days, FIG. 25): inhibitory effect
inhibiting ovalbumin-specific IgE secretion in plasma (in words) (ovalbumin-specific IgE; plasma, 8 times daily for 8 days): very effective
reduction of ovalbumin-specific IgE secretion (ovalbumin-specific IgE; plasma, 8 times daily for 8 days, FIG. 22): about 50%
Mouse (%) remaining after reaction [2]: more than 75%
Mouse (%) remaining after reaction ([2]; pH 7.4): 75.26%
half-life according to the evaluation criteria ([2]; mouse): 1 to 3 h
half-life according to the evaluation criteria ([3]; human): 1 to 3 h
Human (%) remaining after reaction [3]: more than 75%
Human (%) remaining after reaction ([3]; pH 7.4): 75.77%
